What was measured:
PTBP1 = molecular target: T1, PTBP1 (Homo sapiens, UniProt P26599); test: Pulldown assay of UPCP and PTBP1; assay type: binding; conditions: pulldown (and MST); His-UPCP 10 μg with Flag beads-PTBP1, 16 h at 4 °C
T1 construct: made in house
Description: Cells were harvested and lysed in buffer A mixed with protease inhibitor cocktail tablet (Roche) after 48 h. […] The beads were washed three times using 1× Tris saline buffer (50 mM Tris-HCl (pH 7.4) and 150 mM NaCl)) for 8 min each. The bound proteins BUBR1 or PTBP1 were eluted with 3×Flag peptide (ApexBio) for 2 h at 4 °C. Finally, BUBR1 or PTBP1 was concentrated and recovered by using the Centrifugal Filters (Amicon Ultra).
A detailed description of the pulldown assay was described previously. His-UPCP fusion protein was expression in bacteria (BL21) and induced with 0.5 mM isopropyl-β-D-thio-galactoside for 16 h at 16 °C. The bacteria were harvested and lysed in TEN buffer (20 mM Tris-HCl (pH7.4), 0.1mM EDTA, 100 mM NaCl). […] His-UPCP was eluted with Imidazole eluent (50 mM NaH2PO4, 300 mM NaCl and 50 mM Imidazole) for 2 h at 4 °C and concentrated and recovered using centrifugal filters (Amicon Ultra). For the pulldown of His-UPCP and Flag-BUBR1 or Flag-PTBP1, 10 μg His-UPCP was incubated with Flag beads (Biotool, catalog no. B23102), Flag beads-BUBR1 or Flag beads-PTBP1 respectively for 16 h at 4 °C. The beads were washed three times with PBS and added to 1× loading buffer for western blot.

[1] = test system: esophagus of Lmna^G609G/G609G mice; test: Masson staining of esophagus (lamina propria); assay type: in vivo, mouse; conditions: 13 weeks; for aortic adventitia, mean / aortic adventitia: 20 mg kg^–1 i.p.
Description: For UPCP injection, 14-day-old Lmna^G609G/G609G mice were injected intraperitoneally with either PBS or UPCP (20 mg kg^–1, every other day) and wild-type mice were injected with PBS. […] Bodyweight and lifespan were monitored after UPCP treatment. The survival rate was analyzed by the Kaplan–Meier method. We only included mice that were of sufficient bodyweight at the start of the experiment, typically at least 80% of the average littermate weight of the same sex and genotype. All animals meeting criteria for inclusion were then divided randomly into three groups according to genotype (Lmna^+/+, Lmna^G609G/G609G-Mock and Lmna^G609G/G609G-UPCP).
For histological analyses, mice of the indicated genotypes were perfused with PBS, then with 4% paraformaldehyde (PFA). Whole organs were incubated in 4% PFA at 4 °C for 16 h. All samples were paraffin embedded and sectioning by Servicebio. Subsequently, the tissues were deparaffinized and rehydrated before hematoxylin-eosin (HE) or Masson staining or immunohistochemistry (IHC). HE staining was performed using an HE Kit (Absin, catalog no. abs9217), and Masson staining was performed using Masson’s Trichrome Stain Kit (Absin, catalog no. abs9347) according to the manufacturer’s instructions. The thickness of the layers or the areas of fibrosis in the tissues were calculated using ImageJ software by a blinded investigator. For IHC, the sections were completed by the Servicebio. The images were acquired by a microscope (Leica DMi8) and analyzed with Leica Application Suite X v.3.6.0.24 (Leica). For BubR1, cytoplasmic staining in cells was scored on the intensity of staining and the proportion of positive cells by a blinded investigator. The intensity of the staining was graded as 0 (negative, no color), 1 (low positive, light yellow), 2 (positive, brown yellow) or 3 (high positive, brown), and the number of positive cells was graded as 0 (<5%), 1 (5–25%), 2 (25–50%), 3 (51–75%) or 4 (>75%). The final score was defined as staining number score multiplied by staining color score. For lamin B1, p21 or IL-6, the proportion of positive cells was used to quantify the expression of protein in tissues by a blinded investigator.

[2] = 20 mg kg^–1 i.p. every other day

T1 sequence (P26599 whole entry): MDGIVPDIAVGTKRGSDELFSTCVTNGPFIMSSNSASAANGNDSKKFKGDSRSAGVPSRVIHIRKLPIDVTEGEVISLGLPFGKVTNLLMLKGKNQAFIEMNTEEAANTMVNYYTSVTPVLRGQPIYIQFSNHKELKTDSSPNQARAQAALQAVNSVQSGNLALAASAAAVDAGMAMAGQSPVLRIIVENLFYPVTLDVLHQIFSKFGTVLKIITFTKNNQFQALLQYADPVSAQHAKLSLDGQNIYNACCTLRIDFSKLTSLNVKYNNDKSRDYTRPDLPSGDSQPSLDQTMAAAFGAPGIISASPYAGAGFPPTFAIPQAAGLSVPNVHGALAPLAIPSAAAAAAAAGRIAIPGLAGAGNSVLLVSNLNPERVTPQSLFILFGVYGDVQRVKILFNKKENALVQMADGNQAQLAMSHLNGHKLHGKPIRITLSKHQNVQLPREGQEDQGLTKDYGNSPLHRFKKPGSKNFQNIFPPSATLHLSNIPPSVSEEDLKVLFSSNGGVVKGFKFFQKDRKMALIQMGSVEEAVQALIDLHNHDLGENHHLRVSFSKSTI

In the case of “H-YGRKKRRQRRRYNLRSRTVLCGTCGQPADKASASGSGAQSPQNCSIM-OH (cysteines drawn unpaired) [UPCP, unique progerin C-terminal peptide]”, the “combination with PTBP1” value (PTBP1) is reported as “combined with PTBP1”, the “fibrosis of lamina propria, esophagus” value [1, 2] is reported as “reduced fibrosis of lamina propria in the esophagus and heart” and the “thickness of lamina propria, esophagus” value [1, 2] is reported as “decreased the thickness of the lamina propria in the esophagus”. The “aortic adventitia, mean” value ([1]; sample 1, mean of 3 measurements) was 9.139 μm, the aortic adventitia ([1]; sample 1, measurement 1) was 9.452 μm and the aortic adventitia ([1]; sample 1, measurement 2) was 8.478 μm. The aortic adventitia ([1]; sample 1, measurement 3) was 9.488 μm, the “aortic adventitia, mean” value ([1]; sample 2, mean of 3 measurements) was 9.054 μm and the aortic adventitia ([1]; sample 2, measurement 1) was 9.392 μm. The aortic adventitia ([1]; sample 2, measurement 2) was 8.624 μm, the aortic adventitia ([1]; sample 2, measurement 3) was 9.147 μm and the “aortic adventitia, mean” value ([1]; sample 3, mean of 3 measurements) was 10.936 μm. The aortic adventitia ([1]; sample 3, measurement 1) was 10.5409 μm, the aortic adventitia ([1]; sample 3, measurement 2) was 9.16 μm and the aortic adventitia ([1]; sample 3, measurement 3) was 13.1073 μm.
